Measurements reported in US5306712A, “Fungicidal silicon-containing compounds and their agrochemical and medicinal uses” (Sanyo Company, Limited, priority 1991, dated 1994).
In brackets after ≈: the same amount, converted by molar mass. Read-outs that look alike come from different tables or passages of the source.

Legend:
Candida Albicans Sc. = assay: Antifungal Test (MIC, Sabouraud's agar); type: cell-based; conditions: 48 h, C. albica, 27° C., 2 days
Experimental: (§1) (i) Preparation of the test solution: The sample to be tested was examined to determine a suitable solvent from those listed below and the method of dissolution, and then the sample was weighed (about 10 mg), dissolved in the selected solvent and diluted with sterilized distilled water to a concentration of 500 μg/ml. Samples of the resulting solution were then subjected to sequential dilution to half the previous concentration to prepare I2 samples in which the concentration of active compound is progressively halved.
(§2) (ii) Test procedure for antifungal activity: Using Nunklon (Registered trademark) 24.hole plates (manufactured by Nunk K. K.), 0.1 ml each of the diluted solutions described above was poured into a hole, 0.9 ml of Sabouraud's agar medium was added to each hole, giving a total of 1 ml in each hole, and mixed to prepare the plate medium.
1 Candida Albicans Sc. (C. albica)
(§3) These test strains were inoculated by means of a slant on Sabouraud's agar medium, cultured at 27° C. for 2 days for the yeast strains or for 7 to 14 days for the mold strains, and, kept intact, preserved at 5° C. (subcultured every 1 month). On the day of the test, in the case of the yeast medium, physiological saline to which had previously been added Tween 80 in an amount of 0.1% (w/v) was added to each medium to prepare 10^6 cells/ml suspensions; and, in the case of the mold medium, 4 ml each of the solution above was added to the surface of the agar slant, the surface was rubbed slightly with a stirrer or a platinum loop to suspend the spores, and then, by filtration through a funnel on which 2 sterilized gauzes were placed one upon another, 10^6 cells/ml suspensions were prepared. Using an Eppendorf pipette, 0.1 ml each of these suspension preparations was inoculated and cultivated. The culture was conducted at 27° C. for 2 days for the three strains of yeast, for 5 days for molds 4 , 5 and 6, and for 7 days for molds 7 and 8 to determine minimal inhibitory concentrations of the test samples.

Candida albicans 427 = assay: Antifungal Test (MIC, Sabouraud's agar); type: cell-based
[1] = test system: Cryptococcus neoformans 58063; assay: Antifungal Test (MIC, Sabouraud's agar); type: cell-based; conditions: Cryptococcus neoformans, 58063, 48 h; C. neofor; 27° C., 2 days
Experimental: as §1, §2
3 Cryptococcus neoformans 58063 (C. neofor)
as §3

Mucor mucedo = assay: Antifungal Test (MIC, Sabouraud's agar); type: cell-based; conditions: 120 h
Aspergillus fumigatus = assay: Antifungal Test (MIC, Sabouraud's agar); type: cell-based; conditions: 120 h, A. fumiga, 27° C., 5 days
Experimental: as §1, §2
5 Aspergillus fumigatus (A. fumiga)
as §3

Microsporum gypseum = assay: Antifungal Test (MIC, Sabouraud's agar); type: cell-based; conditions: Nannizzia gypsea, 120 h
Experimental: as §1, §2
6 Microsporum gypseum (M. gypseu)
as §3

[2] = test system: Trichophyton mentagrophytes Sc.; assay: Antifungal Test (MIC, Sabouraud's agar); type: cell-based; conditions: 168 h, T. mentag, 27° C., 7 days
Experimental: as §1, §2
7 Trichophyton mentagrophytes Sc. (T. mentag)
as §3

Trichophyton rubrum Sc. = assay: Antifungal Test (MIC, Sabouraud's agar); type: cell-based; conditions: 168 h
[3] = test system: Coriolus versicolor (Fungus D); assay: Wood-preservative Activity (Antidecay); conditions: paper disc, 30 μl of 300 ppm acetone solution, 25° C., 5 days
Experimental: (§4) A fungal disc of about 4 mm diameter was inoculated on an agar medium (2% by weight malt extract, 1% glucose, 0.3% peptone and 2% agar) in a petri dish of diameter 9 cm, by placing the disc on the center of the medium. Paper disc specimens were prepared by impregnating 30 μl of an acetone solution containing 300 ppm of the test compound into the disc (diameter 8 mm, thickness 0.7 mm) and then subjecting it to dry sterilization. The disc specimens were placed in a circle at about 1 cm distance from the fringe of the grown fungus, three days after the inoculation. The specimens were then maintained at 25° C. for 5 days, after which the antifungal activity was determined by visual observation of infection of the specimens by the fungus.
(§5) The procedure described in Experiment 7 was repeated, except that the fungi tested were Coriolus versicolor (Fungus D) and Tyromyces palustris (Fungus E), which are prescribed in JIS A-9201.

[4] = test system: Tyromyces palustris (Fungus E); assay: Wood-preservative Activity (Antidecay); conditions: paper disc, 30 μl of 300 ppm acetone solution, 25° C., 5 days
Experimental: as §4, §5

[5] = test system: Aspergillus niger (Fungus A); assay: Antifungal Activity (paper disc on agar); conditions: 30 μl of 300 ppm acetone solution, 25° C., 5 days
Experimental: (§6) A fungal disc of about 4 mm diameter was inoculated on an agar medium (2% by weight malt extract, 1% glucose, 0.3% peptone and 2% agar) in a petri dish of diameter 9 cm, by placing the disc on the center of the medium. Paper disc specimens were prepared by impregnating 30 μl of an acetone solution containing 300 ppm of the test compound into the disc (diameter 8 mm, thickness 0.7 mm) and then subjecting it to dry sterilization. The disc specimens were placed in a circle at about 1 cm distance from the fringe of the grown fungus, three days after the inoculation. The specimens were then maintained at 25° C. for 5 days, after which the antifungal activity was determined by visual observation of infection of the specimens by the fungus. The fungi tested were:
Aspergillus niger (Fungus A),

[6] = test system: Gliocladium virens (Fungus B); assay: Antifungal Activity (paper disc on agar); conditions: 30 μl of 300 ppm acetone solution, 25° C., 5 days
Experimental: as §6
Gliocladium virens (Fungus B), and

[7] = test system: Fusarium moliniforme (Fungus C); assay: Antifungal Activity (paper disc on agar); conditions: 30 μl of 300 ppm acetone solution, 25° C., 5 days
Experimental: as §6
Fusarium moliniforme (Fungus C).
The antifungal activity is indicated by the following ratings:

SMILES | MIC (Candida Albicans Sc.) [µg/mL] | MIC (Candida albicans 427; Candida albicans, 48 h, C. alb 427, 27° C., 2 days, read-out: MIC) [µg/mL] | MIC [1] [µg/mL] | MIC (Mucor mucedo; M. mucedo, 27° C., 5 days, read-out: MIC) [µg/mL] | MIC (Aspergillus fumigatus) [µg/mL] | MIC (Microsporum gypseum) [µg/mL] | MIC [2] [µg/mL] | MIC (Trichophyton rubrum Sc.; T. rubrum, 27° C., 7 days, read-out: MIC) [µg/mL] | wood-preservative (antidecay) activity, Fungus D [3] | wood-preservative (antidecay) activity, Fungus E [4] | antifungal activity, Fungus A [5] | antifungal activity, Fungus B [6] | antifungal activity, Fungus C [7] | MIC (Candida albicans 427; Candida albicans, 427, 48 h) [µg/mL] | MIC (Mucor mucedo) [µg/mL] | MIC (Trichophyton rubrum Sc.) [µg/mL]
C[Si](C)(C)CC(O)(Cn1cncn1)c1ccc(F)cc1F (centres unmarked) [Compound 1-12, 2-(2,4-Difluorophenyl)-1-(1H-1,2,4-triazole-1-yl)-3-trimethylsilyl-2-propanol] | > 50 | > 50 | 6.2 (≈ 19.9 µM) | 12.5 (≈ 40.1 µM) | 12.5 (≈ 40.1 µM) | 1.5 (≈ 4.82 µM) | 0.8 (≈ 2.57 µM) | 0.8 (≈ 2.57 µM) | + | + | - | + | + |  |  | 
C[Si](C)(C)CC(O)(Cn1cncn1)c1ccc(Cl)cc1 (centres unmarked) [Compound 1-2, 2-(4-Chlorophenyl)-1-(1H-1,2,4-triazol-1-yl)-3-trimethylsilyl-2-propanol] | > 50 |  | 12.5 (≈ 40.3 µM) |  | > 50 | > 50 | 3.1 (≈ 10 µM) |  | + | + | + | + | + | > 50 | > 50 | 3.1 (≈ 10 µM)
